Results on 14 molecules are retold here after patent publication US12448369B2 (Edgewise Therapeutics, Inc., priority 2023, dated 2025).

Assay [1] relates to Rabbit Psoas myofibrils (skeletal myosin ATPase). As to the kind of experiment: Myofibril ATPase assay, rabbit psoas (skeletal) myofibrils. It is filed as biochemical. Particulars: rabbit psoas myofibrils. The procedure, abridged: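 Values derive from concentration–response fits of NADH consumption rates at 340 nm, normalized to vehicle-only wells, as Y75 or Y125. Myofibril ATP turnover was linked to NADH via PK/LDH in Ca/EGTA-buffered PIPES, pH 7.0, and read over 75 min.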

Assay [2] has as its system Porcine atria myofibrils (atrial myosin ATPase). As to the kind of experiment: Myofibril ATPase assay, porcine atria myofibrils. It is filed as biochemical. Conditions: porcine atria myofibrils. The procedure, abridged: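 Atrial myofibril ATPase measured by NADH-coupled absorbance at 340 nm; vehicle-normalized slopes fitted to give Y75 or Y125 values.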
For assay [3], the target named is T1, Porcine ventricle myofibrils (ventricular myosin ATPase) (Sus scrofa, UniProt P79293).
T1 construct: Myofibrils from porcine cardiac muscle was isolated from the left ventricle of Yucatan minipigs; tissue Exemplar Genetics; host or cells: left ventricle of Yucatan minipigs, myofibrils prepared in house
T1 sequence (P79293 whole entry): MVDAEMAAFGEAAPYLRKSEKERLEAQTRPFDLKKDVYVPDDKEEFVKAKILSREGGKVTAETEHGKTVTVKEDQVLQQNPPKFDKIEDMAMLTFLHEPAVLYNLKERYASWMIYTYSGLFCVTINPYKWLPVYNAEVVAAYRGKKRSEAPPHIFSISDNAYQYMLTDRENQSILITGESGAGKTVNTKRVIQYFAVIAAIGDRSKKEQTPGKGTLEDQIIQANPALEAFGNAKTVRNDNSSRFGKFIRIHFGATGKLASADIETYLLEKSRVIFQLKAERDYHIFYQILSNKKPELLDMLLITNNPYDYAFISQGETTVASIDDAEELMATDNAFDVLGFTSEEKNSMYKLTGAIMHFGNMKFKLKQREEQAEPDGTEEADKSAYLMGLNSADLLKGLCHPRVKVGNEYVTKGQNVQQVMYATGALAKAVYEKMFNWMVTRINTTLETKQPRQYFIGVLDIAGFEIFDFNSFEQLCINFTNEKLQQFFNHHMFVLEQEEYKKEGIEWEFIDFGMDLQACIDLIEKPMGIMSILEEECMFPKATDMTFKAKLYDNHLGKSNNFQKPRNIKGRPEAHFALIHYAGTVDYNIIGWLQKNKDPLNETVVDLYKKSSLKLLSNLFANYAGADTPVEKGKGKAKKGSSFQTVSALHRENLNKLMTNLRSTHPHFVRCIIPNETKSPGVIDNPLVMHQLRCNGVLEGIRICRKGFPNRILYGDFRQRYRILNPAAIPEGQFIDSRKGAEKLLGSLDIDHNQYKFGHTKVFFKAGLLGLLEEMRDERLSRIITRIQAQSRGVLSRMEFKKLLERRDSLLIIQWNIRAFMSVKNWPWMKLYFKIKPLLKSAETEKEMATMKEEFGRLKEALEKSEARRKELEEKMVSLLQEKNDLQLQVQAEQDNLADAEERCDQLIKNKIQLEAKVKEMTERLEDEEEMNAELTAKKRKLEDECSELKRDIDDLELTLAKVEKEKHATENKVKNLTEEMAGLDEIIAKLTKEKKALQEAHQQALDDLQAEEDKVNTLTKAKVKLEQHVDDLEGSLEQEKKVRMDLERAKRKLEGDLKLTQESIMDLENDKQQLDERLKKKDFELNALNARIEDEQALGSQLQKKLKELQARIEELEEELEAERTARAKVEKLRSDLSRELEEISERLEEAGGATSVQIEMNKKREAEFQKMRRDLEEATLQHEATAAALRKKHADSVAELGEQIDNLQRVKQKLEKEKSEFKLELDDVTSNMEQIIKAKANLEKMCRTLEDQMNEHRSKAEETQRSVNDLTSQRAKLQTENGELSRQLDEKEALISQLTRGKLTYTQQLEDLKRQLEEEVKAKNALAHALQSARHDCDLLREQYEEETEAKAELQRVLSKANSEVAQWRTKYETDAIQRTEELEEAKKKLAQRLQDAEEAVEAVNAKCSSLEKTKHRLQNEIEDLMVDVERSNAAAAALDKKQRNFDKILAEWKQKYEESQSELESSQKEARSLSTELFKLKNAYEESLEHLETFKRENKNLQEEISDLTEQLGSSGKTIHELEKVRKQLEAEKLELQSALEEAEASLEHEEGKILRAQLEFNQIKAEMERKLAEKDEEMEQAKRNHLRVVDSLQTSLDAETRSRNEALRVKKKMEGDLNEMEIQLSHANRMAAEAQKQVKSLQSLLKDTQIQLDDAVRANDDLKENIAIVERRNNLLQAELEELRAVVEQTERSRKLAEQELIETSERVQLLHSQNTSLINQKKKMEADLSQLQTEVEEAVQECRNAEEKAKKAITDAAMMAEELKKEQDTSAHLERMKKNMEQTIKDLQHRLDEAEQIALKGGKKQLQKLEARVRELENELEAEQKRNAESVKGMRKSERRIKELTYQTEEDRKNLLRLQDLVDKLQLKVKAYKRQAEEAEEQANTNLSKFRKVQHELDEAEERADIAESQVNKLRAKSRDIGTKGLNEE
Kind of assay: Myofibril ATPase assay, porcine ventricle myofibrils. The class given is biochemical, porcine (Yucatan minipigs). Conditions: porcine ventricle myofibrils. A digest of the protocol:
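ATPase activity of porcine left-ventricle myofibrils (Yucatan minipig) was followed through PK-LDH coupling as NADH loss at 340 nm, read every 1.5-2 min for 75 min. Slopes were normalised to vehicle wells and fitted to a 4-parameter logistic model. Values are Y75, the concentration giving a 25% drop in activity, or Y125 for activators.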

The mark [4] stands for this setting: Y75 value (75% activity relative to no compound).

Consider `C[C@H](NC(=O)Cc1c(C(F)(F)F)c2c(C3CC3)nccc2[nH]c1=O)c1ccc(F)cc1F` [compound 421], for which the “Skeletal EC25” value in assay [1] (Y75 value) amounted to 200 nM. Also, the “Atrial EC25” value in assay [2] (setting [4]) is 100000 nM. Also, the “Ventricular EC25” value in assay [3] (Y75 value) is 100000 nM.
On to `Cc1c(CC(=O)N[C@@H](C)c2ccc(C#N)cn2)c(=O)[nH]c2ccncc12` [compound 467], for which the “Skeletal EC25” value in assay [1] (Y75 value) came to 16000 nM. For the same molecule, in assay [2] (setting [4]), the “Atrial EC25” value turned out to be 100000 nM. Further, the “Ventricular EC25” value in assay [3] (Y75 value) came out at 100000 nM.
`CCN(CC)c1nccc2[nH]c(=O)c(CC(=O)N[C@@H](C)c3ccc(F)cc3F)c(C)c12` [compound 343]: in assay [1] (Y75 value), the “Skeletal EC25” value was 1550 nM. In assay [2] (setting [4]), the “Atrial EC25” value worked out at 2390 nM. Further, the “Ventricular EC25” value in assay [3] (Y75 value) was determined as 9620 nM.
With `Cc1nc(C#N)cnc1[C@@H](C)NC(=O)C1(c2cc3c(F)c(F)ccc3[nH]c2=O)CC1` (single isomer, unassigned) [compound 4825], the “Skeletal EC25” value in assay [1] (Y75 value (no ‡ mark)) amounted to 100000 nM. Moreover, in assay [2] (Y75 value (no ‡ mark)), the “Atrial EC25” value was 430 nM. Besides, the “Ventricular EC25” value in assay [3] (Y75 value (no ‡ mark)) worked out at 100000 nM.
Turning to `Cc1nccc2[nH]c(=O)c(CC(=O)N[C@@H](CO)c3ccccn3)c(C)c12` (single isomer, unassigned) [compound 317], the “Skeletal EC25” value in assay [1] (Y75 value) amounted to 100000 nM. Also, the “Atrial EC25” value in assay [2] (setting [4]) was 100000 nM. For the same molecule, the “Ventricular EC25” value in assay [3] (Y75 value) was 100000 nM.
As to `Cc1nccc2[nH]c(=O)c(CC(=O)N[C@H](C)c3ncc(F)cc3F)c(C)c12` (single isomer, unassigned) [compound 378], in assay [1] (Y75 value), the “Skeletal EC25” value turned out to be 3180 nM. The “Atrial EC25” value in assay [2] (setting [4]) came to 100000 nM. In assay [3] (Y75 value), the “Ventricular EC25” value amounted to 100000 nM.
Turning to `Cc1c(CC(=O)N[C@@H](C)c2ccc(F)cc2F)c(=O)[nH]c2ccnc(OC3CC3)c12` [compound 386], in assay [1] (Y75 value), the “Skeletal EC25” value was determined as 30 nM. In addition, the “Atrial EC25” value in assay [2] (setting [4]) came out at 120 nM. For the same molecule, the “Ventricular EC25” value in assay [3] (Y75 value) was determined as 1510 nM.
For the molecule `Cc1nc(C#N)cnc1[C@@H](C)NC(=O)C(F)(F)c1c(C)c2c(C)nccc2[nH]c1=O` (single isomer, unassigned) [compound 3503], the “Skeletal EC25” value in assay [1] (Y75 value) stood at 890 nM. Moreover, the “Atrial EC25” value in assay [2] (setting [4]) was 3500 nM. Moreover, the “Ventricular EC25” value in assay [3] (Y75 value) was determined as 5700 nM.
On the same counts, the results for `Cc1c([C@@H](C)C(=O)N[C@@H](C)c2ccc(C#N)cc2F)c(=O)[nH]c2ccnc(C#N)c12` (single isomer, unassigned) [compound 173] are 20 nM, 220 nM and 300 nM.
As for `Cc1nccc2[nH]c(=O)c(C(F)(F)C(=O)N[C@@H](C)c3ncc(C#N)cc3F)c(C)c12` (single isomer, unassigned) [compound 3517], the “Skeletal EC25” value in assay [1] (Y75 value) came to 380 nM. In addition, the “Atrial EC25” value in assay [2] (setting [4]) was found to be 1120 nM. In addition, in assay [3] (Y75 value), the “Ventricular EC25” value turned out to be 2110 nM.
As for `Cc1c(CC(=O)N[C@H]2COc3cc(C#N)cc(F)c32)c(=O)[nH]c2ccc(F)c(C#N)c12` (single isomer, unassigned) [compound 60], the “Skeletal EC25” value in assay [1] (Y75 value (no ‡ mark)) worked out at 270 nM. Further, the “Atrial EC25” value in assay [2] (Y75 value (no ‡ mark)) was found to be 50 nM. In assay [3] (Y75 value (no ‡ mark)), the “Ventricular EC25” value was determined as 620 nM.
With `C[C@H](NC(=O)Cc1cc2c(F)c(F)ccc2[nH]c1=O)c1ccc(C#N)cn1` [compound 18], the “Skeletal EC25” value in assay [1] (Y75 value (no ‡ mark)) stood at 80 nM. In addition, the “Atrial EC25” value in assay [2] (Y75 value (no ‡ mark)) is 90 nM. Besides, the “Ventricular EC25” value in assay [3] (Y75 value (no ‡ mark)) came out at 260 nM.
Consider `Cc1nccc2[nH]c(=O)c(CC(=O)N[C@H](CO)c3ccc(C#N)cc3F)c(C)c12` (single isomer, unassigned) [compound 238], for which the “Skeletal EC25” value in assay [1] (Y75 value) came out at 2870 nM. Also, in assay [2] (setting [4]), the “Atrial EC25” value worked out at 8520 nM. Further, in assay [3] (Y75 value), the “Ventricular EC25” value came out at 11530 nM.
On to `CCOc1ccc2[nH]c(=O)c(CC(=O)N[C@@H](C)c3ccc(F)cc3F)c(C)c2n1` [compound 414], for which the “Skeletal EC25” value in assay [1] (Y75 value) worked out at 30 nM. Further, in assay [2] (setting [4]), the “Atrial EC25” value is 160 nM. In assay [3] (Y75 value), the “Ventricular EC25” value was 13930 nM.
